Results from patent US20250120981A1, “MRTX1133 PHARMACEUTICAL COMPOSITIONS” (MIRATI THERAPEUTICS, INC., priority 2023, published 2025).
Several values for one entry are separate records, joined by “and”; a condition that tells them apart may be missing. Identical values can stand only once. Like-named read-outs stand apart in the source and are kept apart here.

Assay: Pharmacokinetics in humans, MRTX1133 formulation, oral, single and multiple doses
Format: in vivo
Details: for AUC0-12 Accumulation Ratio, Geo Mean / Cmax Accumulation Ratio, Geo Mean / Peak to Trough Ratio, Geo Mean: geometric mean of subjects
Description: The pharmacokinetics [PK] of the MRTX1133 formulation after oral administration has been evaluated in 25 subjects across 3 escalating dose frequencies under fasting conditions (200 mg twice daily [BID], 400 mg BID, and 800 mg BID), as well as evaluation of 400 mg BID when administered with a low-fat meal (i.e., under fed conditions). The mean (+standard deviation) single-dose and multiple-dose pharmacokinetic profiles of the evaluated doses are presented in FIG. 9 and FIG. 10, respectively. Individual single- and multiple-dose PK profiles can be found in FIG. 11. For all figures, the X-axis represents nominal time of sample collection (hours [h]) and the Y-axis represents plasma concentration (ng/mL). Table 10 lists PK data following the oral administration of a single dose and multiple doses of MRTX1133 formulation by dose level and subject.

[1] = multiple oral doses of 200 mg BID, fasted
[2] = multiple oral doses of 200 mg BID, fasted, individual subjects
[3] = multiple oral doses of 400 mg BID with a low-fat meal
[4] = multiple oral doses of 400 mg BID with a low-fat meal, individual subjects
[5] = multiple oral doses of 400 mg BID, fasted
[6] = multiple oral doses of 400 mg BID, fasted, individual subjects
[7] = multiple oral doses of 800 mg BID, fasted, Geo Mean of subjects

concentration at 0 h (human, plasma, po, 800 mg, single oral dose of 800 mg, fasted, 0 h, individual subjects, read-out: Plasma concentration): 0 ng/mL
concentration at 0.5 h (human, plasma, po, 800 mg, single oral dose of 800 mg, fasted, 0.5 h, mean of subjects, read-out: Plasma concentration, Mean): 235 ng/mL
concentration at 1 h (human, plasma, po, 800 mg, single oral dose of 800 mg, fasted, 1 h, mean of subjects, read-out: Plasma concentration, Mean): 286 ng/mL
concentration at 1.5 h (human, plasma, po, 800 mg, single oral dose of 800 mg, fasted, 1.5 h, mean of subjects, read-out: Plasma concentration, Mean): 151 ng/mL
concentration at 2 h (human, plasma, po, 800 mg, single oral dose of 800 mg, fasted, 2 h, mean of subjects, read-out: Plasma concentration, Mean): 117 ng/mL
concentration at 4 h (human, plasma, po, 800 mg, single oral dose of 800 mg, fasted, 4 h, mean of subjects, read-out: Plasma concentration, Mean): 67.6 ng/mL
concentration at 6 h (human, plasma, po, 800 mg, single oral dose of 800 mg, fasted, 6 h, mean of subjects, read-out: Plasma concentration, Mean): 57.9 ng/mL
concentration at 8 h (human, plasma, po, 800 mg, single oral dose of 800 mg, fasted, 8 h, mean of subjects, read-out: Plasma concentration, Mean): 49.7 ng/mL
concentration at 12 h (human, plasma, po, 800 mg, single oral dose of 800 mg, fasted, 12 h, mean of subjects, read-out: Plasma concentration, Mean): 12.6 ng/mL
concentration at 24 h (human, plasma, po, 800 mg, single oral dose of 800 mg, fasted, 24 h, mean of subjects, read-out: Plasma concentration, Mean): 25.5 ng/mL
AUC(0-t) (human, plasma, po, 800 mg, single oral dose of 800 mg, fasted, Geo Mean of subjects, read-out: AUC0-12): 440 ng·h/mL
AUC0-inf (human, plasma, po, 800 mg, single oral dose of 800 mg, fasted, Geo Mean of subjects, read-out: AUC0-inf): 543 ng·h/mL
AUC(0-t) (human, plasma, po, 800 mg, single oral dose of 800 mg, fasted, Geo Mean of subjects, read-out: AUC0-last): 463 ng·h/mL
Cmax (human, plasma, po, 800 mg, single oral dose of 800 mg, fasted, Geo Mean of subjects, read-out: Cmax): 123 ng/mL
Tmax (human, plasma, po, 800 mg, single oral dose of 800 mg, fasted, Median of subjects, read-out: Tmax): 1.2 h
AUC0-12 Accumulation Ratio, Geo Mean [1]: 0.9
Cmax Accumulation Ratio, Geo Mean [1]: 0.6
Peak to Trough Ratio, Geo Mean [1]: 12.3
AUC0-12 Accumulation Ratio [2]: 1.30 and 0.94 and 0.44 and 1.16
Cmax Accumulation Ratio [2]: 0.73 and 0.71 and 0.85 and 1.26 and 0.14
Peak to Trough Ratio [2]: 52.1 and 2.75 and 78.2 and 24.9 and 1.02
Tlast [2]: 12 h (4×) and 2.0 h
Tmax [2]: 0.5 h
AUC0-12 Accumulation Ratio, Geo Mean [3]: 1.7
Cmax Accumulation Ratio, Geo Mean [3]: 1.9
Peak to Trough Ratio, Geo Mean [3]: 12.9
AUC0-12 Accumulation Ratio [4]: 2.61 and 1.50 and 2.52 and 0.75
Cmax Accumulation Ratio [4]: 4.69 and 2.66 and 1.71 and 0.63
Peak to Trough Ratio [4]: 7.25 and 84.7 and 10.6 and 4.27
Tlast [4]: 12 h
AUC0-12 Accumulation Ratio, Geo Mean [5]: 1.6
Cmax Accumulation Ratio, Geo Mean [5]: 1.3
Peak to Trough Ratio, Geo Mean [5]: 11.1
Tlast [6]: 12 h
Tmax [6]: 6.0 h and 0.5 h (3×)
AUC0-12 Accumulation Ratio [7]: 1.0
Cmax Accumulation Ratio [7]: 0.8
Peak to Trough Ratio [7]: 9.6
Structure (SMILES): C#Cc1c(F)ccc2cc(O)cc(-c3ncc4c(N5C[C@H]6CC[C@@H](C5)N6)nc(OC[C@@]56CCCN5C[C@H](F)C6)nc4c3F)c12 [MRTX1133, 4-(4-((1R,5S)-3,8-diazabicyclo[3.2.1]octan-3-yl)-8-fluoro-2-(((2R,7aS)-2-fluorohexahydro-1Hpyrrolizin-7a-yl)methoxy)pyrido[4,3-d]pyrimidin-7-yl)-5-ethynyl-6-fluoronaphthalen-2-ol]
AUC0-12 [2]: 181 ng·h/mL and 84.0 ng·h/mL and 42.9 ng·h/mL and 115 ng·h/mL
AUC0-last [2]: 181 ng·h/mL and 84.0 ng·h/mL and 42.9 ng·h/mL and 115 ng·h/mL and 31.9 ng·h/mL
Cmax [2]: 85.0 ng/mL and 15.0 ng/mL and 49.4 ng/mL and 56.2 ng/mL and 17.1 ng/mL
AUC0-12 [4]: 1,475 ng · h/mL and 457 ng · h/mL and 107 ng · h/mL and 127 ng · h/mL
AUC0-last [4]: 1,475 ng · h/mL and 457 ng · h/mL and 107 ng · h/mL and 127 ng · h/mL
Cmax [4]: 390 ng/mL and 250 ng/mL and 48.2 ng/mL and 23.0 ng/mL
Plasma concentration (multiple oral doses of 400 mg BID, fasted, 0.5 h, individual subjects): 79.1 ng/mL and 58.5 ng/mL and 82.8 ng/mL and 83.0 ng/mL and 29.7 ng/mL and 23.6 ng/mL and 152 ng/mL
Plasma concentration (multiple oral doses of 400 mg BID, fasted, 1 h, individual subjects): 129 ng/mL and 31.5 ng/mL and 61.2 ng/mL and 38.4 ng/mL and 11.5 ng/mL and 44.7 ng/mL and 285 ng/mL
Plasma concentration (multiple oral doses of 400 mg BID, fasted, 1.5 h, individual subjects): 90.2 ng/mL and 28.5 ng/mL and 38.9 ng/mL and 32.3 ng/mL and 15.2 ng/mL and 38.0 ng/mL and 209 ng/mL
Plasma concentration (multiple oral doses of 400 mg BID, fasted, 2 h, individual subjects): 99.0 ng/mL and 27.2 ng/mL and 55.6 ng/mL and 23.4 ng/mL and 21.1 ng/mL and 30.0 ng/mL and 83.1 ng/mL
Plasma concentration (multiple oral doses of 400 mg BID, fasted, 4 h, individual subjects): 82.8 ng/mL and 11.0 ng/mL and 115 ng/mL and 23.8 ng/mL and 5.34 ng/mL and 233 ng/mL and 70.5 ng/mL
Plasma concentration (multiple oral doses of 400 mg BID, fasted, 6 h, individual subjects): 189 ng/mL and 2.51 ng/mL and 45.3 ng/mL and 10.7 ng/mL and 4.38 ng/mL and 148 ng/mL and 43.8 ng/mL
Plasma concentration (multiple oral doses of 400 mg BID, fasted, 8 h, individual subjects): 88.9 ng/mL and 2.27 ng/mL and 33.3 ng/mL and 8.36 ng/mL and 3.68 ng/mL and 110 ng/mL and 35.5 ng/mL
Plasma concentration (multiple oral doses of 400 mg BID, fasted, 12 h, individual subjects): 76.9 ng/mL and 2.76 ng/mL and 31.2 ng/mL and 6.42 ng/mL and 3.71 ng/mL and 42.1 ng/mL and 31.3 ng/mL
AUC0-12 [6]: 1,237 ng · h/mL and 128 ng · h/mL and 640 ng · h/mL and 211 ng · h/mL and 89.4 ng · h/mL and 1,239 ng · h/mL and 821 ng · h/mL
AUC0-12 Accumulation Ratio [6]: 3.02 and 1.35 and 5.02 and 1.40 and 0.76 and 0.73 and 1.41
AUC0-last [6]: 1,237 ng · h/mL and 128 ng · h/mL and 640 ng · h/mL and 211 ng · h/mL and 89.4 ng · h/mL and 1,239 ng · h/mL and 821 ng · h/mL
Cmax [6]: 189 ng/mL and 58.5 ng/mL and 115 ng/mL and 83.0 ng/mL and 29.7 ng/mL and 233 ng/mL and 285 ng/mL
Cmax Accumulation Ratio [6]: 3.04 and 0.94 and 1.73 and 1.17 and 0.80 and 0.83 and 1.52
Peak to Trough Ratio [6]: 3.30 and 101 and 3.47 and 9.10 and 6.32 and 23.7 and 13.4
